Experimental data from the supplement of paper PMC10627819.

Experiments:
B. subtilis 168 [1] = assay: fitness (endpoint OD595 vs no drug) (fraction); higher = more growth
In short: (§1)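 Fitness was defined as the optical density at the transition into stationary phase relative to the robust mean of no-drug control wells. Values were capped at 1. Cultures were started at OD595 0.01 in 384-well plates (30 µl, or 55 µl for S. pneumoniae) in TSB, LB Lennox or CY at 37 °C. OD595 was recorded every 30 min over 14 h, with the first reading subtracted as background.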

S. aureus DSM 20231 [2] = assay: as above
In short: as §1

S. pneumoniae D39V [3] = assay: as above
In short: as §1

B. subtilis 168 [4] = assay: Bliss interaction score (quartile over a dose matrix) (fitness difference); higher = more antagonism (negative = synergy)
In short: (§2)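 Fitness was derived from optical density at entry into stationary phase, divided by the robust mean of the no-drug wells on the same plate. That reading was taken as OD595, and the ratio was capped at 1. Single-drug fitness was inferred from the combination data. The Bliss score, observed fitness minus the expected product of single-drug fitness, was summarised as quartiles over technical, biological and donor/recipient replicates.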

S. aureus DSM 20231 [5] = assay: as above
In short: as §2

S. aureus Newman = assay: as above
In short: as §2

S. pneumoniae D39V [6] = assay: as above
In short: as §2
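For Bliss interaction score (quartile over a dose matrix) in this document: first quartile when negative (synergy) and third quartile when positive (antagonism).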

CCC[C@@H]1C[C@@H](C(=O)N[C@@H]([C@H]2O[C@H](SC)[C@H](O)[C@@H](O)[C@H]2O)[C@@H](C)O)N(C)C1 [Lincomycin] + Cc1ncc([N+](=O)[O-])n1CCO [Metronidazole]
Conditions | fitness
B. subtilis 168 [1], first compound 0.1 µg/mL, partner 0.625 µg/mL | 0.971
B. subtilis 168 [1], first compound 0.1 µg/mL, partner 1.25 µg/mL | 0.93
B. subtilis 168 [1], first compound 0.1 µg/mL, partner 2.5 µg/mL | 0.887
B. subtilis 168 [1], first compound 0.2 µg/mL, partner 0.625 µg/mL | 0.928
B. subtilis 168 [1], first compound 0.2 µg/mL, partner 1.25 µg/mL | 0.9
B. subtilis 168 [1], first compound 0.2 µg/mL, partner 2.5 µg/mL | 0.876
B. subtilis 168 [1], first compound 0.4 µg/mL, partner 0.625 µg/mL | 0.991
B. subtilis 168 [1], first compound 0.4 µg/mL, partner 1.25 µg/mL | 0.894
B. subtilis 168 [1], first compound 0.4 µg/mL, partner 2.5 µg/mL | 0.933
S. aureus DSM 20231 [2], first compound 0.1 µg/mL, partner 0.625 µg/mL | 0.884
S. aureus DSM 20231 [2], first compound 0.1 µg/mL, partner 1.25 µg/mL | 0.953
S. aureus DSM 20231 [2], first compound 0.1 µg/mL, partner 2.5 µg/mL | ≥ 1
S. aureus DSM 20231 [2], first compound 0.2 µg/mL, partner 0.625 µg/mL | 0.812
S. aureus DSM 20231 [2], first compound 0.2 µg/mL, partner 1.25 µg/mL | 0.853
S. aureus DSM 20231 [2], first compound 0.2 µg/mL, partner 2.5 µg/mL | 0.866
S. pneumoniae D39V [3], first compound 0.2 µg/mL, partner 1.073 µg/mL | 0.752
S. pneumoniae D39V [3], first compound 0.2 µg/mL, partner 2.145 µg/mL | 0.681
S. pneumoniae D39V [3], first compound 0.2 µg/mL, partner 4.29 µg/mL | 0.659
S. pneumoniae D39V [3], first compound 0.215 µg/mL, partner 1.25 µg/mL | 0.874
S. pneumoniae D39V [3], first compound 0.215 µg/mL, partner 2.5 µg/mL | 0.87
S. pneumoniae D39V [3], first compound 0.215 µg/mL, partner 5 µg/mL | 0.844
S. pneumoniae D39V [3], first compound 0.4 µg/mL, partner 1.073 µg/mL | 0.68
S. pneumoniae D39V [3], first compound 0.4 µg/mL, partner 2.145 µg/mL | 0.654
S. pneumoniae D39V [3], first compound 0.4 µg/mL, partner 4.29 µg/mL | 0.647
S. pneumoniae D39V [3], first compound 0.43 µg/mL, partner 1.25 µg/mL | 0.765
S. pneumoniae D39V [3], first compound 0.43 µg/mL, partner 2.5 µg/mL | 0.761
S. pneumoniae D39V [3], first compound 0.43 µg/mL, partner 5 µg/mL | 0.738
S. pneumoniae D39V [3], first compound 0.8 µg/mL, partner 1.073 µg/mL | 0.502
S. pneumoniae D39V [3], first compound 0.8 µg/mL, partner 2.145 µg/mL | 0.435
S. pneumoniae D39V [3], first compound 0.8 µg/mL, partner 4.29 µg/mL | 0.428
S. pneumoniae D39V [3], first compound 0.86 µg/mL, partner 1.25 µg/mL | 0.579
S. pneumoniae D39V [3], first compound 0.86 µg/mL, partner 2.5 µg/mL | 0.578
S. pneumoniae D39V [3], first compound 0.86 µg/mL, partner 5 µg/mL | 0.557

Conditions | Bliss interaction score
B. subtilis 168 [4] | -0.0532
S. aureus DSM 20231 [5] | 0.0836
S. aureus Newman | 0.073
S. pneumoniae D39V [6] | 0.138

CCC[C@@H]1C[C@@H](C(=O)N[C@@H]([C@H]2O[C@H](SC)[C@H](O)[C@@H](O)[C@H]2O)[C@H](C)Cl)N(C)C1 [Clindamycin] + CC(=O)NC[C@H]1CN(c2ccc(N3CCOCC3)c(F)c2)C(=O)O1 [Linezolid]
one replicate
Conditions | fitness
B. subtilis 168 [1], first compound 0.0039 µg/mL, partner 0.125 µg/mL | 0.943
B. subtilis 168 [1], first compound 0.0039 µg/mL, partner 0.25 µg/mL | 0.772
B. subtilis 168 [1], first compound 0.0039 µg/mL, partner 0.5 µg/mL | 0.448
B. subtilis 168 [1], first compound 0.0078 µg/mL, partner 0.125 µg/mL | 0.853
B. subtilis 168 [1], first compound 0.0078 µg/mL, partner 0.25 µg/mL | 0.632
B. subtilis 168 [1], first compound 0.0078 µg/mL, partner 0.5 µg/mL | 0.118
B. subtilis 168 [1], first compound 0.0156 µg/mL, partner 0.125 µg/mL | 0.835
B. subtilis 168 [1], first compound 0.0156 µg/mL, partner 0.25 µg/mL | 0.624
B. subtilis 168 [1], first compound 0.0156 µg/mL, partner 0.5 µg/mL | 0.385
B. subtilis 168 [1], first compound 0.0625 µg/mL, partner 0.0625 µg/mL | 0.696
B. subtilis 168 [1], first compound 0.125 µg/mL, partner 0.0625 µg/mL | 0.497
B. subtilis 168 [1], first compound 0.25 µg/mL, partner 0.0625 µg/mL | 0.387
S. aureus DSM 20231 [2], first compound 0.0312 µg/mL, partner 1 µg/mL | 0.0507
S. aureus DSM 20231 [2], first compound 0.0625 µg/mL, partner 1 µg/mL | 0.0324
S. aureus DSM 20231 [2], first compound 0.125 µg/mL, partner 1 µg/mL | 0.0362

Conditions | fitness
B. subtilis 168 [1], first compound 0.0625 µg/mL, partner 0.125 µg/mL | 0.605
B. subtilis 168 [1], first compound 0.0625 µg/mL, partner 0.25 µg/mL | 0.0905
B. subtilis 168 [1], first compound 0.0625 µg/mL, partner 0.5 µg/mL | 0.0427
B. subtilis 168 [1], first compound 0.125 µg/mL, partner 0.125 µg/mL | 0.502
B. subtilis 168 [1], first compound 0.125 µg/mL, partner 0.25 µg/mL | 0.0971
B. subtilis 168 [1], first compound 0.125 µg/mL, partner 0.5 µg/mL | 0.0448
B. subtilis 168 [1], first compound 0.25 µg/mL, partner 0.125 µg/mL | 0.397
B. subtilis 168 [1], first compound 0.25 µg/mL, partner 0.25 µg/mL | 0.104
B. subtilis 168 [1], first compound 0.25 µg/mL, partner 0.5 µg/mL | 0.0468
S. aureus DSM 20231 [2], first compound 0.0312 µg/mL, partner 0.5 µg/mL | 0.143
S. aureus DSM 20231 [2], first compound 0.0625 µg/mL, partner 0.25 µg/mL | 0.13
S. aureus DSM 20231 [2], first compound 0.0625 µg/mL, partner 0.5 µg/mL | 0.0789
S. aureus DSM 20231 [2], first compound 0.125 µg/mL, partner 0.125 µg/mL | 0.0394
S. aureus DSM 20231 [2], first compound 0.125 µg/mL, partner 0.25 µg/mL | 0.0405
S. aureus DSM 20231 [2], first compound 0.125 µg/mL, partner 0.5 µg/mL | 0.0486
S. pneumoniae D39V [3], first compound 0.0125 µg/mL, partner 0.2 µg/mL | 0.624
S. pneumoniae D39V [3], first compound 0.0125 µg/mL, partner 0.4 µg/mL | 0.45
S. pneumoniae D39V [3], first compound 0.0125 µg/mL, partner 0.8 µg/mL | 0.264
S. pneumoniae D39V [3], first compound 0.015 µg/mL, partner 0.105 µg/mL | 0.81
S. pneumoniae D39V [3], first compound 0.015 µg/mL, partner 0.21 µg/mL | 0.748
S. pneumoniae D39V [3], first compound 0.015 µg/mL, partner 0.42 µg/mL | 0.627
S. pneumoniae D39V [3], first compound 0.025 µg/mL, partner 0.2 µg/mL | 0.412
S. pneumoniae D39V [3], first compound 0.025 µg/mL, partner 0.4 µg/mL | 0.345
S. pneumoniae D39V [3], first compound 0.025 µg/mL, partner 0.8 µg/mL | 0.237
S. pneumoniae D39V [3], first compound 0.03 µg/mL, partner 0.105 µg/mL | 0.707
S. pneumoniae D39V [3], first compound 0.03 µg/mL, partner 0.21 µg/mL | 0.683
S. pneumoniae D39V [3], first compound 0.03 µg/mL, partner 0.42 µg/mL | 0.539
S. pneumoniae D39V [3], first compound 0.05 µg/mL, partner 0.2 µg/mL | 0.176
S. pneumoniae D39V [3], first compound 0.05 µg/mL, partner 0.4 µg/mL | 0.148
S. pneumoniae D39V [3], first compound 0.05 µg/mL, partner 0.8 µg/mL | 0.112
S. pneumoniae D39V [3], first compound 0.06 µg/mL, partner 0.105 µg/mL | 0.579
S. pneumoniae D39V [3], first compound 0.06 µg/mL, partner 0.21 µg/mL | 0.544
S. pneumoniae D39V [3], first compound 0.06 µg/mL, partner 0.42 µg/mL | 0.277

Conditions | Bliss interaction score
B. subtilis 168 [4] | 0.215
S. aureus DSM 20231 [5] | 0.027
S. aureus Newman | -0.0929
S. pneumoniae D39V [6] | 0.132
